Measured values reported in paper doi:10.1101/2022.06.29.498063v1, “Molecular basis for the pheromone-mediated feeding preference of early-instar Mythimna separata larvae” (biorxiv, 2022).

Biological target: T1, MsGOBP2 (Mythimna separata, UniProt A0A5H2NB15)
T1 construct: recombinant, pColdII vector, E. coli TransB, Ni-NTA purified, expression tag removed with enterokinase
T1 sequence (A0A5H2NB15 22-162): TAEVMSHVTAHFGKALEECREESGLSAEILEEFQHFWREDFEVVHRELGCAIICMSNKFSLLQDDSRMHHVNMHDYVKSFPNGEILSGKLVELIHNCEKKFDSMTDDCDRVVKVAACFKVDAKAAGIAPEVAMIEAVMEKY
Test: direct fluorescence titration with the probe
Format: binding
Details: 2 μM protein; protein dialyzed in 10 mM PBS pH 7.4; excitation 337 nm

Structure (SMILES): c1ccc(Nc2cccc3ccccc23)cc1 [1-NPN]
- K1-NPN: yielding the dissociation constants between the two proteins and 1-NPN (K1-NPN)
